These results are taken from paper PMC9097471, “Development of Selective Phosphatidylinositol 5-Phosphate 4-Kinase γ Inhibitors with a Non-ATP-competitive, Allosteric Binding Mode” (Journal of Medicinal Chemistry, 2022).

A value given as a limit tells only on which side of the number the result lay.

Test [1] addresses T1, PI5P4Kβ (Homo sapiens, UniProt P78356).
T1 sequence (P78356 1-416): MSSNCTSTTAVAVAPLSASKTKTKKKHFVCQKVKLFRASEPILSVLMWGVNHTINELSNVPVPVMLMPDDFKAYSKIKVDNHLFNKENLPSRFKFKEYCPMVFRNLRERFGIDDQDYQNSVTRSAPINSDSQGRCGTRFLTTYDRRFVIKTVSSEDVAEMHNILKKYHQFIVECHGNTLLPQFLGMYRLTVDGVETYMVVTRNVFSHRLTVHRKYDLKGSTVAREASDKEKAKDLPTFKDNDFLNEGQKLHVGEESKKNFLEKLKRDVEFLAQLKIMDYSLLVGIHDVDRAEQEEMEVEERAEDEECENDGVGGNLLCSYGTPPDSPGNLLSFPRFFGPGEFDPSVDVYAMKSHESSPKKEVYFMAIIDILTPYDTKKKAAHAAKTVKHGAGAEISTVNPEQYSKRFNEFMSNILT
Set-up: method as in ref 30 (a number printed in a supplementary file, which may have a reference list of its own: not looked up in the article's list). The note with it: 32P-ATP/PI5P incorporation, showed 'small but significant stimulation'; cited from earlier work.

Test [2] has as its target Choline Kinase alpha (Homo sapiens, UniProt P35790). The experiment in a line: Lipid kinase panel, ADP-Glo. Format: biochemical. From the text: (§1) Kinase % activity remaining s.d.
(§2) Choline Kinase alpha 101.6 3.2
In general terms: In ADP-Glo the light output rises with the ADP produced.

The target of test [3] is DGK gamma (Homo sapiens, UniProt P49619). As to the kind of experiment: Lipid kinase panel, ADP-Glo. Format: biochemical.
Text: as §1, §2

In test [4] the target is PI3Kalpha (Homo sapiens, UniProt P42336). The experiment in a line: Lipid kinase panel, ADP-Glo. Format: biochemical.
Text: as §1, §2

Test [5] deals with PI4K2a (Homo sapiens, UniProt Q9BTU6). The experiment in a line: Lipid kinase panel, ADP-Glo. The test is classed as biochemical.
PI4K2a, sequence (Q9BTU6 whole entry, species assumed): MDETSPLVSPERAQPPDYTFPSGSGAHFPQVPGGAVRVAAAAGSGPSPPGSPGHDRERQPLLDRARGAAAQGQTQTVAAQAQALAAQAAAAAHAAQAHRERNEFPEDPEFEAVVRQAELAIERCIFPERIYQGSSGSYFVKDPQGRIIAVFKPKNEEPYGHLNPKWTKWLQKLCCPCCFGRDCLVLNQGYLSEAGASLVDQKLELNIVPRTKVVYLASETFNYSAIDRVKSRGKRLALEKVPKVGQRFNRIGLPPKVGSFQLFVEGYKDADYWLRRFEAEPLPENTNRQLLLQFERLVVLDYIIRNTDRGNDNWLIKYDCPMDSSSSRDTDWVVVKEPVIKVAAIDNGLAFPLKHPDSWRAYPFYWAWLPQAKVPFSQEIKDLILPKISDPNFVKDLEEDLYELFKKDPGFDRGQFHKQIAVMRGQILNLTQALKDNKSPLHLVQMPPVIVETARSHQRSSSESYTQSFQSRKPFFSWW
Text: as §1, §2

For test [6], the target named is SGK1 (Homo sapiens, UniProt O00141). As to the kind of experiment: Kinase panel, radiometric 33P filter binding. The following applies: read-out: % activity remaining.
SGK1, sequence (O00141 whole entry): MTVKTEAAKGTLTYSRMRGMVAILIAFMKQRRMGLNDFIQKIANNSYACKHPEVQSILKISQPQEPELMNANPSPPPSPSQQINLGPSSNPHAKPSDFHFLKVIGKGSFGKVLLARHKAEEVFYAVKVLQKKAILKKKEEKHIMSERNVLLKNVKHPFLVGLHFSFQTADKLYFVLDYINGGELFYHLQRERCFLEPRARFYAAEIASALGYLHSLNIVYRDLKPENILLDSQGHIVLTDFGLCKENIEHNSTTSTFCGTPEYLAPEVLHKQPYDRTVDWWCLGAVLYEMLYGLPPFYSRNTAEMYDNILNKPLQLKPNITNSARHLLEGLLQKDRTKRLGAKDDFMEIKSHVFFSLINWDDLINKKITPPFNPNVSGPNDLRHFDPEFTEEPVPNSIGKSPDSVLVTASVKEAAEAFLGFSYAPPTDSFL
Text: (§3) filter binding assay using 33P-g-ATPat the MRC PPU International Centre for Kinase Profiling, University of
The target of test [7] is PKA (Homo sapiens, UniProt P17612). The experiment in a line: Kinase panel, radiometric 33P filter binding. The note with it: read-out: % activity remaining.
Text: as §3
Test [8] deals with PHK (Homo sapiens, UniProt Q16816). The experiment in a line: Kinase panel, radiometric 33P filter binding. The note with it: read-out: % activity remaining.
PHK, sequence (Q16816 whole entry): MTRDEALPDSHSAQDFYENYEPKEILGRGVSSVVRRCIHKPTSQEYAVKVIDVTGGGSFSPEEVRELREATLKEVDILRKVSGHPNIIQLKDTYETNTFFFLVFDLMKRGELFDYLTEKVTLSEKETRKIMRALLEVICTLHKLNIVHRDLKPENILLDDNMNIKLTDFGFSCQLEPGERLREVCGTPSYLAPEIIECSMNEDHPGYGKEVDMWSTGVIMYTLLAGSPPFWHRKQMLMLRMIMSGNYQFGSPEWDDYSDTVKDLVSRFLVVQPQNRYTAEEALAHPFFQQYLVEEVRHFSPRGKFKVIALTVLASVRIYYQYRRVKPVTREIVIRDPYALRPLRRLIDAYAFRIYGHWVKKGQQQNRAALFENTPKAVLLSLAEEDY
Text: as §3
In test [9] the target is CK2 (Homo sapiens, UniProt P68400). The experiment in a line: Kinase panel, radiometric 33P filter binding. The note with it: read-out: % activity remaining.
Text: as §3
Test [10] concerns the target MINK1 (Homo sapiens, UniProt Q8N4C8). As to the kind of experiment: Kinase panel, radiometric 33P filter binding. The note with it: read-out: % activity remaining.
Text: as §3
The target of test [11] is TGFBR1 (Homo sapiens, UniProt P36897). The experiment in a line: Kinase panel, radiometric 33P filter binding. The following applies: read-out: % activity remaining.
TGFBR1, sequence (P36897 34-503): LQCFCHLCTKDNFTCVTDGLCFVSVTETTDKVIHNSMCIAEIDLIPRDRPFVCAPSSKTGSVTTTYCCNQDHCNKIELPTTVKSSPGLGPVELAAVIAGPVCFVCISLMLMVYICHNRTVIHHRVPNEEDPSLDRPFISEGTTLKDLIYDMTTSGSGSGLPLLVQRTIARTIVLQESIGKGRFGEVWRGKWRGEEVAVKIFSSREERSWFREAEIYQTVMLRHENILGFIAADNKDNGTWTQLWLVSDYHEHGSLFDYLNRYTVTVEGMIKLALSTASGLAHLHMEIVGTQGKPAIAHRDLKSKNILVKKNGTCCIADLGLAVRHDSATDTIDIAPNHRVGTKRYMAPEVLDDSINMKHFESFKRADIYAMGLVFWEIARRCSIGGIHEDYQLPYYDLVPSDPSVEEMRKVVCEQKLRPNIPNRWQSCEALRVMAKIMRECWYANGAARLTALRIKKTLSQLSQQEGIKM
Test [12] addresses VEG-FR (Homo sapiens, UniProt P17948). The experiment in a line: Kinase panel, radiometric 33P filter binding. The following applies: read-out: % activity remaining.
Text: as §3

VEG-FR, sequence (P17948 27-1338): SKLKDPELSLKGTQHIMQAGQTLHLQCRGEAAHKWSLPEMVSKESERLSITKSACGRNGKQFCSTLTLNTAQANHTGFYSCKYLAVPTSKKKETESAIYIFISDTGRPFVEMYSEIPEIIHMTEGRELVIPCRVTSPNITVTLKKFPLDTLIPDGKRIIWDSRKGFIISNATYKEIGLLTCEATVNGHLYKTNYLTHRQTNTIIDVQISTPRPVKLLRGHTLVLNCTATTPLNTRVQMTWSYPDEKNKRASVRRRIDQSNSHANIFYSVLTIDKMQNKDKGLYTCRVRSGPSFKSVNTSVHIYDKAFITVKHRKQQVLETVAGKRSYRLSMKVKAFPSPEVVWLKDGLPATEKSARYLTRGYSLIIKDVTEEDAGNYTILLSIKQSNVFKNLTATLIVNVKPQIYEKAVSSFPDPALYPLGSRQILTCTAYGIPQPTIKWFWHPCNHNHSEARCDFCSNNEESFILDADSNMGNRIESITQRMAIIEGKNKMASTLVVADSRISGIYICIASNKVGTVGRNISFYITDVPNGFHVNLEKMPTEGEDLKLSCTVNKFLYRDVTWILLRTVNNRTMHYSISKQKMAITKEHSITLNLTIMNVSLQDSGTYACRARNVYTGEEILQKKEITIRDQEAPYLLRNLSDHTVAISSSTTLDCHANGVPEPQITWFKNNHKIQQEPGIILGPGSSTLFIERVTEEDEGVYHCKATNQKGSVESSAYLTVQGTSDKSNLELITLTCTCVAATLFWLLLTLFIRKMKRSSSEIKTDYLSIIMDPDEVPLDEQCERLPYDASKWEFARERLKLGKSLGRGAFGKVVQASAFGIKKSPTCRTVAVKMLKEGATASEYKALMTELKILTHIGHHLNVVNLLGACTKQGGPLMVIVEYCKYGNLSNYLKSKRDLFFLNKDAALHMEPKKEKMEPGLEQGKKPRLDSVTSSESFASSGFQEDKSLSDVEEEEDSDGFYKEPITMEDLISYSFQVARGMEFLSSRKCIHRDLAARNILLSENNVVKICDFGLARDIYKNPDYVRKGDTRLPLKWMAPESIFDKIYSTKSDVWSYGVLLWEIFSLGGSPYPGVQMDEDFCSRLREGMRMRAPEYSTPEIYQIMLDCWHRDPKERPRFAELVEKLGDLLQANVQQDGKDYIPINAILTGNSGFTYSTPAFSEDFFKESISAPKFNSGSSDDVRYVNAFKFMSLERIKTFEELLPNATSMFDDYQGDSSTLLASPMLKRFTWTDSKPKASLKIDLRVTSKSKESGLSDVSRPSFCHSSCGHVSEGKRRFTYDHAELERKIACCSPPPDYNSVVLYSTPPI
MINK1, sequence (Q8N4C8 whole entry): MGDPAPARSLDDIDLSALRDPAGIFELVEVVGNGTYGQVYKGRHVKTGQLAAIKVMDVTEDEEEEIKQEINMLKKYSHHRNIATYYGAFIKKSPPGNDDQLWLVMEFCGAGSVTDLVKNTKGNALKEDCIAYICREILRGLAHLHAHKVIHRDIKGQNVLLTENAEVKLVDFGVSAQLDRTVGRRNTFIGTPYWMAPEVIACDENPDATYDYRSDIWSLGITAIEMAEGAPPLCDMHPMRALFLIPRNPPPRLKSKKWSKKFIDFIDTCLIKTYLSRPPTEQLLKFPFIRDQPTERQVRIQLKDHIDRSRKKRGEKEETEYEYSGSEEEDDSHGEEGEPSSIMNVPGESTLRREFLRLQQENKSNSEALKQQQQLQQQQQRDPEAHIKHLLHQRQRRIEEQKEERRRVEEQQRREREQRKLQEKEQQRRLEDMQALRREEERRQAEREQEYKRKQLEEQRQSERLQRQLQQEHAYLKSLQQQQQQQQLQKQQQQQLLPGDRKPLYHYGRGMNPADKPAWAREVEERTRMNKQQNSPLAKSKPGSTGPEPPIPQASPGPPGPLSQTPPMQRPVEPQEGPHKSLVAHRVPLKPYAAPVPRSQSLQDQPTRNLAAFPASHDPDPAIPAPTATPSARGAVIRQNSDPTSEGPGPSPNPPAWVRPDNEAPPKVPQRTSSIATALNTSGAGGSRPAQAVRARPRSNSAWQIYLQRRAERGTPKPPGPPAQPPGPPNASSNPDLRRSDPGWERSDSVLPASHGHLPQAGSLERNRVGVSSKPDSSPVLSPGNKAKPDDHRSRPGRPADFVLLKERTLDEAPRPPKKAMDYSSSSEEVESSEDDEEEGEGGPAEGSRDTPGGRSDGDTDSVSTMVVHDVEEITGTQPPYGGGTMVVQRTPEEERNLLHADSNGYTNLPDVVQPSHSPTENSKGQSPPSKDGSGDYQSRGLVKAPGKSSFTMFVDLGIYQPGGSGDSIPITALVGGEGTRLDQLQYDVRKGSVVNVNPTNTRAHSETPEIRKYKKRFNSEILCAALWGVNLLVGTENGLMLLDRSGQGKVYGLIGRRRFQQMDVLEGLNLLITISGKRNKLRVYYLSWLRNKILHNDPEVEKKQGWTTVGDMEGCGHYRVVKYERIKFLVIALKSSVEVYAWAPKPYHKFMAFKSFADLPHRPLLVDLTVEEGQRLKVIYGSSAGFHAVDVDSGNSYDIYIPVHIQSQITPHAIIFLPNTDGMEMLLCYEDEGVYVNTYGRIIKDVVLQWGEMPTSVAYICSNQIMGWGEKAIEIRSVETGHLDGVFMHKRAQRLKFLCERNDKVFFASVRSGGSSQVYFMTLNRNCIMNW
Choline Kinase alpha, sequence (P35790 whole entry, species assumed): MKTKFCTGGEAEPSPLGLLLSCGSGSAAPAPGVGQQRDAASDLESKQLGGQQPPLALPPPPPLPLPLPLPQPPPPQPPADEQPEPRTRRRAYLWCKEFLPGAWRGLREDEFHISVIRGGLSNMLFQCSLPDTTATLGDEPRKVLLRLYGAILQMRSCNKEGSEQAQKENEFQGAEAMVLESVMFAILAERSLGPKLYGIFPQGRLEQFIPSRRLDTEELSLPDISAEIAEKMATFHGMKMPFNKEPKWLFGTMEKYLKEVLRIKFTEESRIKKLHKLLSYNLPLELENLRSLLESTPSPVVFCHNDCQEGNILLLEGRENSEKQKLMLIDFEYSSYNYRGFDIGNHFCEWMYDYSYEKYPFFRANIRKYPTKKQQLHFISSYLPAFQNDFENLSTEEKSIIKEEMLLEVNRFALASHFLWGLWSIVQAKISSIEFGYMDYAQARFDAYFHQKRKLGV

Broadly, the IC50 is the concentration that gives 50% inhibition. Regarding `FC(F)(F)c1ccccc1-c1nc(NCc2cccs2)c2ccccc2n1` [Compound 1, NIH-12848, reference compound], the IC50 in [1] is greater than 100 µM.
The term remaining activity denotes the signal under treatment as a percentage of the control signal. Turning to `CC(C)c1ccccc1-c1nc(NCc2ccccn2)c2c(ccn2C)n1` [Compound 40], the remaining activity at 10 µM was 102% in test [2]; 99.4% in [3]; 91.4% in test [4]; 93.5% in test [5]; 98% in test [6]; 109% in test [7]. The remaining activity at 10 µM stood at 107% in [8]; 90% in test [9]; 95% in test [10]; 91% in test [11]; 125% in test [12].
